Laboratory results from BindingDB's records for doi:10.1021/acsmedchemlett.6b00390 (Yale University, 2016).
pEC50: −log10 of the molar value.

Columns and labels:
[1] = Inhibition of HIV1 reverse transcriptase Y181C mutant infected in human MT2 cells assessed as protection against viral infection by MTT assay
[2] = Inhibition of HIV1 reverse transcriptase K103N/Y181C double mutant infected in human MT2 cells assessed as protection against viral infection by MTT assay

| SMILES | pEC50 [1] | pEC50 [2] |
| --- | --- | --- |
| Cc1c(Oc2ccccc2OCCn2ccc(=O)[nH]c2=O)cc(Cl)c2ccc(C#N)cc12 | 7.24 |  |
| N#Cc1ccc2c(Cl)cc(Oc3ccccc3OCCn3ccc(=O)[nH]c3=O)cc2c1 | 6.05 | 6.05 |
| N#Cc1ccc2ccc(Oc3ccccc3OCCn3ccc(=O)[nH]c3=O)cc2c1 | 5.59 | 5.40 |
| CCCc1cc(Oc2ccccc2OCCn2ccc(=O)[nH]c2=O)c(C)c2cc(C#N)ccc12 | 6.20 | 6.00 |
| Cc1c(Oc2ccc(F)cc2OCCn2ccc(=O)[nH]c2=O)cc(F)c2ccc(C#N)cc12 | 7.51 | 6.01 |
| Cc1c(Oc2ccc(F)cc2OCCn2ccc(=O)[nH]c2=O)cc(Cl)c2ccc(C#N)cc12 | 7.57 | 6.30 |
| N#Cc1ccc2cc(Oc3ccccc3OCCn3ccc(=O)[nH]c3=O)ccc2c1 | < 7.00 | 5.25 |
| N#Cc1cc2c(Oc3ccc(F)cc3OCCn3ccc(=O)[nH]c3=O)cc(F)cn2c1 | 6.60 | 8.00 |
| Cc1cc2ccc(C#N)cc2c(C)c1Oc1ccccc1OCCn1ccc(=O)[nH]c1=O | < 7.00 | 5.77 |
| Cc1c(Oc2ccccc2OCCn2ccc(=O)[nH]c2=O)c(C)c2cc(C#N)ccc2c1C |  | 6.10 |
| N#Cc1ccc2c(Cl)cc(Oc3ccc(F)cc3OCCn3ccc(=O)[nH]c3=O)cc2c1 | 5.96 | 5.39 |
| Cc1cc(Oc2ccc(F)cc2OCCn2ccc(=O)[nH]c2=O)c(F)c2cc(C#N)ccc12 | 5.92 | 5.42 |
| Cc1cc(Oc2ccc(F)cc2OCCn2ccc(=O)[nH]c2=O)c(C)c2cc(C#N)ccc12 | 7.55 | 6.39 |
| Cc1c(Oc2ccc(Cl)cc2OCCn2ccc(=O)[nH]c2=O)cc(F)c2ccc(C#N)cc12 | 6.48 | < 7.00 |
| N#Cc1ccc2c(F)cc(Oc3ccc(F)cc3OCCn3ccc(=O)[nH]c3=O)c(Cl)c2c1 | 7.14 | 5.80 |
| CCOc1cc(Oc2ccccc2OCCn2ccc(=O)[nH]c2=O)c(C)c2cc(C#N)ccc12 | 6.70 | 6.10 |
| Cc1c(Oc2ccccc2OCCn2ccc(=O)[nH]c2=O)cc(C(C)C)c2ccc(C#N)cc12 | 6.40 | 7.00 |
| Cc1c(Oc2ccccc2OCCn2ccc(=O)[nH]c2=O)cc(CC2CC2)c2ccc(C#N)cc12 | 6.05 | 5.92 |
| COc1cc(Oc2ccccc2OCCn2ccc(=O)[nH]c2=O)c(C)c2cc(C#N)ccc12 | 6.17 | 5.80 |
| COCc1cc(Oc2ccccc2OCCn2ccc(=O)[nH]c2=O)c(C)c2cc(C#N)ccc12 | 6.16 | 6.10 |
| Cc1cc(Oc2ccccc2OCCn2ccc(=O)[nH]c2=O)c(Cl)c2cc(C#N)ccc12 | 7.38 | 6.92 |
| Cc1cc(Oc2ccccc2OCCn2ccc(=O)[nH]c2=O)c(C)c2cc(C#N)ccc12 | 7.21 | 6.82 |
| Cc1cc(Oc2ccccc2OCCn2ccc(=O)[nH]c2=O)cc2cc(C#N)ccc12 | 6.10 | 5.54 |
| CCc1cc(Oc2ccccc2OCCn2ccc(=O)[nH]c2=O)c(C)c2cc(C#N)ccc12 | 6.82 | 6.52 |
| N#Cc1ccc2c(F)cc(Oc3ccccc3OCCn3ccc(=O)[nH]c3=O)c(Cl)c2c1 | 7.05 | 6.51 |
| Cc1c(Oc2ccccc2OCCn2ccc(=O)[nH]c2=O)cc(F)c2ccc(C#N)cc12 | 7.22 | 6.05 |
| N#Cc1ccc2ccc(Oc3ccc(F)cc3OCCn3ccc(=O)[nH]c3=O)cc2c1 | 5.92 | 5.03 |
